Experimental data taken from patent US9663789B2, “PME-1 as a biomarker to predict and diagnose endometrial and breast cancer and gene silencing of PME-1 to inhibit epithelial to mesenchymal transition” (MEDICAL DIAGNOSTIC LABORATORIES, LLC, priority 2013, dated 2017).

Test system: RL95-2 cells
Test: BrDU incorporation assay, RL95-2 cells
Format: cell-based, human
Settings: RL95-2, compared to scrambled shRNA control set to 100%
Description: To confirm our foci formation data that altering PME-1 levels in endometrial cancer cells affect their rate of cell proliferation, we conducted a BrDU incorporation assay. BrDU is incorporated into newly synthesized DNA and can be detected with antibodies; thus, increased BrDU incorporation correlates with an increased level of proliferation.
The BrDU Incorporation assay was completed with RL95-2 cell lines in media supplemented with 2.5 μg/ml puromycin. Cells were plated at 0.5×10^4 cells per well into a 96 well dish with 0% FBS and allowed to settle for 24 hours. The assay was completed as per kit instructions (Roche, Cell Proliferation ELISA, BrdU colorimetric cat. #11647229001). Briefly, 10 uM BrdU was added to the cells, 24 hours later cells were fixed and denatured with FixDenat from the kit and allowed to incubate with anti-BrdU antibody for up to two hours. Following the incubation and addition of the kit substrate, absorbances were read using FluoStar Galaxy.

Substance: shRNA (SEQ ID NO: 2): lentiviral shRNA against PPME1, target sequence SEQ ID NO: 2 GCAGCGATTATTAGTAGAGTT, bp 289-309; hairpin SEQ ID NO: 8 (CCGGGCAGCGATTATTAGTAGAGTTCTCGAGAACTCTACTAATAATCGCTGCTTTTT; listed as Homo sapiens)
- decrease in BrDU incorporation: 40%
